Measured values: patent publication US8889705B2, “Noscapine analogs and their use in treating cancers” (Emory University, priority 2007, dated 2014)

Experiments:
tubulin = tested on: T1, tubulin; assay: Tubulin polymerization assay (light scattering at 550 nm); assay type: biochemical, mammalian; conditions: 25 μM or 100 μM
T1 construct: other: 2 μM tubulin, 45 min at 37° C., double reciprocal plot; rate and extent of tubulin polymerization; other: 25 μM or 100 μM
Experimental: Mammalian brain tubulin (1.0 mg/ml) was mixed with different concentrations of 9-nitro-nos (25 or 100 μM) at 0° C. in an assembly buffer (100 mM PIPES at pH 6.8, 3 mM MgSO4, 1 mM EGTA, 1 mM GTP, and 1M sodium glutamate). Polymerization was initiated by raising the temperature to 37° C. in a water bath. The rate and extent of the polymerization reaction were monitored by light scattering at 550 nm, using a 0.3-cm path length cuvette in a JASCO FP-6500 spectrofluorometer (JASCO, Tokyo, Japan) for 30 minutes.

[1] = tested on: caspase-3 activity in CEM, CEM/VLB100, CEM/VM-1-5, 1A9 and 1A9/PTX22 cells; assay: Determination of caspase-3 activity (Z-DEVD-aminoluciferin); assay type: cell-based, human; conditions: 72 hours; 25 μM (CEM lines) or 50 μM (1A9 lines)
Experimental: Determination of caspase-3 activity: 10^6 cells were incubated with 25 μM 9-nitro-nos (CEM, CEMNLB100 and CEM/VM-1-5) or 50 μM 9-nitro-nos (1A9 and 1A9/PTX22) for 0, 24, 48 and 72 hours. Caspase-3 activity was then measured by the cleavage of the small synthetic substrate Z-DEVD-aminoluciferin (CaspaseGlo™ 3/7 Assay System Kit, Promega, Madison, Wis.) that becomes luminogenic upon cleavage. The luminescent signal, which is directly proportional to the amount of caspase-3 activity, was measured in a luminescence plate reader.

In the case of COc1ccc2c(c1OC)C(=O)O[C@@H]2[C@H]1c2c(c([N+](=O)[O-])c3c(c2OC)OCO3)CCN1C [9-nitro-nos, (S)-6,7-dimethoxy-3-((R)-4-methoxy-6-methyl-9-nitro-5,6,7,8-tetrahydro-[1,3]dioxolo[4,5-g]isoquinolin-5-yl)isobenzofuran-1(3H)-one], the “rate and extent of tubulin polymerization” value (tubulin) is reported as “did not inhibit the rate or extent of tubulin polymerization” and the “activation of caspase-3” value [1] is reported as 10-20 fold.
